From publication PMC10525516, “Novel NADPH Oxidase-2 Inhibitors as Potential Anti-Inflammatory and Neuroprotective Agents” (Antioxidants, 2023)
Like-named read-outs stand apart in the source and are kept apart here.

Experiments:
THP-1 cells = test: qRT-PCR mRNA expression of Nox2 subunits and inflammatory mediators in PMA-treated THP-1 cells; assay type: cell-based, human; details: 3 µM, 48 h with PMA 100 ng/mL
Procedure: Human promyelocytic leukemia HL60 cells (Sigma-Aldrich) were grown in RPMI 1640 medium (Gibco, 11875-093, Billings, MT, USA) supplemented with 10% FBS (Omega Scientific (Tarzana, CA, USA)), 100 units/mL penicillin, and 100 µg/mL streptomycin, and were incubated at 37 °C and 5% carbon dioxide (CO2). For differentiation to neutrophil-like cells, HL60 cells were pelleted and resuspended in fresh media containing 1 µM of all trans-retinoic acid and incubated for four to five days. Nox2 activation was achieved by treating differentiated HL60 (dHL60) cells with 1 µM PMA [24]. Human leukemia monocytic cells, THP-1, were grown in RPMI 1640 medium + GlutaMAX^TM (Gibco, 61870-036) and supplemented with 10% FBS, 10 mM HEPES, and 1 mM sodium pyruvate and incubated at 37 °C in 5% CO2 environment. To induce differentiation into macrophages, THP-1 cells were treated with PMA (100 ng/mL) for 48 h. To test the efficacy of Nox2 inhibitors, treatment was performed with or without the inhibitor, along with PMA [35].
mRNA expression analysis was performed as previously described. Briefly, THP-1 cells were treated with PMA (100 ng/mL) with or without the Nox2 inhibitor TG15-132 (3.0 µM) for 48 h. RNA extraction was done using the Quick-RNA miniprep kit (cat. no. R1055, Zymo Research, Irvine, CA, USA) and followed by cDNA synthesis using the qScript cDNA superMix kit (cat. no. 84035, Quantabio, Beverly, MA, USA). Quantitative real-time PCR was performed using specific primers designed to amplify target genes (Table 2). Data obtained were analyzed and converted into fold changes in expression with respect to vehicle-treated cells.

[1] = Plasma and brain pharmacokinetics in Sprague Dawley rats; assay type: in vivo
Procedure: Blood samples were collected into labeled microtubes containing dipotassium EDTA solution (20%) as an anticoagulant. Plasma was immediately harvested from the blood by centrifugation at 4000 rpm for 10 min at 4 ± 2 °C and stored below −70 °C until bioanalysis. After isolation, brain tissue samples were rinsed three times in ice cold normal saline (for 5–10 s/rinse using ~5–10 mL normal saline in disposable petri dishes for each rinse) and dried on blotting paper. Tissue samples were homogenized using ice-cold phosphate-buffered saline (pH 7.4). The total homogenate volume (µL) was three times the tissue weight (mg). All homogenates were stored below −70 ± 10 °C until bioanalysis. Concentrations of TG15-132 in plasma and brain samples were determined by fit-for-purpose liquid chromatography with the tandem mass spectrometry method (Sai-Life, Hyderabad, India). Phoenix WinNonlin (version 8.0, Certara, Princeton, NJ, USA) was used to analyze the pharmacokinetic parameters.
Rapid metabolism and the inability to cross the BBB represent major obstacles in the application of bioactive agents in neurodegenerative diseases. Based on the premise that Nox2 plays a major role in oxidative damage and exacerbates neurodegenerative diseases, we envision applications of brain-permeable Nox2 inhibitors in mechanistic studies in vivo, and, long-term, in the development of novel therapeutic strategies. Therefore, we performed in vivo pharmacokinetics studies to determine the time profile of plasma concentration and accumulation of TG15-132 in the brain tissue of Sprague Dawley rats and C57BL6 mice.

dHL60 cells = test: Cell Titer Glo 2.0 cytotoxicity (ATP) assay in PMA-stimulated dHL60 cells; assay type: cell-based, human
Procedure: The cytotoxicity of the inhibitors was tested by measuring the amount of ATP in the wells containing PMA-stimulated dHL60 cells and the candidate inhibitors. Cells were prepared as described for the plate reader-based measurements for H2O2, except that the cells were maintained with the inhibitors in a CO2-free incubator at 37 °C for 2.5 h to mirror the conditions during the fluorescence-based monitoring of H2O2 described above. After incubation, cells (100 µL/well) were transferred to white 96-well plates (Greiner, Kremsmünster, Austria), and the total cellular ATP amount was determined using the Cell Titer Glo 2.0 (Promega) cytotoxicity assay (100 µL/well) by measuring the luminescence intensity using a Beckman Coulter DTX880 plate reader.

[2] = Short-term (seven day) in vivo toxicity in mice; set-up: species or system C57BL/6 mice; details: 20 mg/kg i.p. daily for seven days
Procedure: All animal experiments were performed according to protocols and guidelines approved by the Emory University Animal Care and Use Committee. The in vivo toxicity of TG15-132 was assessed using C57BL/6 mice (cat. no. 027, Charles River Laboratories, Wilmington, MA, USA). Animals were injected daily (i.p.) with saline, vehicle (DMSO 10%, PEG400 30%, water 60%), or 20 mg/kg of TG15-132 in vehicle for seven days, with body weight recorded each day. At the end of treatment, organs were harvested to study organ weight loss, and blood was collected from each mouse via cardiac puncture, and serum was isolated. Serum was analyzed for kidney function using blood urea nitrogen and creatinine, liver function using alanine amino transferase, and tissue damage using lactate dehydrogenase.

Kp at 8 h ([1]; rat, brain, ip, 20 mg/kg i.p., up to 8 h after administration, read-out: brain-to-plasma ratio): > 10
half-life ([1]; rat, brain, ip, single dose 20 mg/kg i.p., read-out: brain half-life (converted)): 5.6 h
AUC(0-inf) ([1]; rat, plasma, ip, single dose 20 mg/kg i.p.): 10200 ng·h/mL
half-life ([1]; rat, plasma, ip, single dose 20 mg/kg i.p., read-out: plasma half-life (converted)): 3.7 h
clearance rate ([1]; single dose 20 mg/kg i.p.): 32.8 mL/min/kg
SMILES: CN(C)CCCn1c(SCCc2c[nH]c3ccccc23)nc2ccc(F)cc2c1=O [TG15-132]
mRNA expression vs PMA-treated cells, additional experiment (Figure 7B) (THP-1 cells): statistically significant reduction in the expression of p47^phox, IL-1β, and TNF
mRNA expression vs cells treated with PMA alone (Figure 7A) (THP-1 cells): reduced the expression of gp91^phox, p47^phox, p67^phox, IL-1β, and TNF
IC50 (dHL60 cells; Homo sapiens, Cell Titer Glo 2.0, PMA-stimulated dHL60 cells, 2.5 h with inhibitor, unit not printed in Table 3, taken from text, read-out: IC50, Viability Assay): 34.5 ± 6 µM
cell viability at concentrations showing Nox2 inhibitory potency (dHL60 cells; dHL60 cells, Figure 3D,E): no decrease in cell viability
blood urea nitrogen compared with saline-treated mice [2]: significant drop
weights of the lung, liver, or brain [2]: no changes
loss of body weight ([2]; marginal and nonsignificant): 7%
serum injury markers (BUN, creatinine, ALT, LDH) vs vehicle ([2]; n = 6): no differences
